The values that follow come from patent US9266834B2, “1, 4-disubstituted 3-cyano-pyridone derivatives and their use as positive allosteric modulators of MGLUR2-receptors” (JANSSEN PHARMACEUTICALS, INC., priority 2006, dated 2016).

T1 sequence (Q14416 19-872): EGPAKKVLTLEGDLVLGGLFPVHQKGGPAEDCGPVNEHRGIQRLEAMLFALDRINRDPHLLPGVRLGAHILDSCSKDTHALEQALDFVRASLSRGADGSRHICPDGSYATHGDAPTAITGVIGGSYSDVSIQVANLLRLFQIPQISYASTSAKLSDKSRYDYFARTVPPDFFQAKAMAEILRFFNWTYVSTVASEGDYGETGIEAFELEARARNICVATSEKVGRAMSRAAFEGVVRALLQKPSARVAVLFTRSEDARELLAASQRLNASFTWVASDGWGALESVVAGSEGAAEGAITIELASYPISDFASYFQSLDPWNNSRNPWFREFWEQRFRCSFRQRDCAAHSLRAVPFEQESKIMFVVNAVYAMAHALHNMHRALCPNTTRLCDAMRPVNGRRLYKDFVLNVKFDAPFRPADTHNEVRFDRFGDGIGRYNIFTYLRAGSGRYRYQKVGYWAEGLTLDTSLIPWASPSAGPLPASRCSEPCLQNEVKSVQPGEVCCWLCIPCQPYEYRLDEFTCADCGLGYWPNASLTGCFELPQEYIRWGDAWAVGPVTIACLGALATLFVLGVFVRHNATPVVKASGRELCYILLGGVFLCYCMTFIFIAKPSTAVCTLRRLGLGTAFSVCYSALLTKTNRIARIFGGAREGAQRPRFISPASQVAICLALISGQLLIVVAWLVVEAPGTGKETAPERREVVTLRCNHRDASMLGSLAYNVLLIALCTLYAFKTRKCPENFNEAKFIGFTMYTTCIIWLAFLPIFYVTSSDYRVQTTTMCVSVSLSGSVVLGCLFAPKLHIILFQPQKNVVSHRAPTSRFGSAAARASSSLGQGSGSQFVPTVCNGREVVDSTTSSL

One assay addresses T1, human mGluR2 receptor (Homo sapiens, UniProt Q14416).
T1 construct: expressed in transfected cells; host or cells: CHO cells (membrane preparation)
Description: [35S]GTPγS binding assay (GTPγS-PAM): positive allosteric modulation in presence of glutamate at EC25, membranes from transfected CHO cells. Conditions: in presence of mGluR2 agonist glutamate at predetermined EC25 concentration, averages of duplicate values of 11-concentration response curves. It is filed as biochemical. The text has this: The compounds provided in the present invention are positive allosteric modulators of mGluR2. These compounds appear to potentiate glutamate responses by binding to an allosteric site other than the glutamate binding site. The response of mGluR2 to a concentration of glutamate is increased when compounds of Formula (I) are present. Compounds of Formula (I) are expected to have their effect substantially at mGluR2 by virtue of their ability to enhance the function of the receptor. The behaviour of positive allosteric modulators tested at mGluR2 using the [^35S]GTPγS binding assay method described below and which is suitable for the identification of such compounds, and more particularly the compounds according to Formula (I), are shown in Table 4.
[^35S]GTPγS Binding Assay
The [^35S]GTPγS binding is a functional membrane-based assay used to study G-protein coupled receptor (GPCR) function whereby incorporation of a non-hydrolysable form of GTP, [^35S]GTPγS (guanosine 5′-triphosphate, labelled with […] ^35S), is measured. The G-protein o subunit catalyzes the exchange of guanosine 5′-diphosphate (GDP) by guanosine triphosphate (GTP) and on activation of the GPCR by an agonist, [^35S]GTPγS, becomes incorporated and cannot be cleaved to continue the exchange cycle (Harper (1998) Current Protocols in Pharmacology 2.6.1-10, John Wiley & Sons, Inc.). […] Here we describe the use of the [^35S]GTPγS binding assay using membranes from cells transfected with the human mGluR2 receptor and adapted from Schaffhauser et al ((2003) Molecular Pharmacology 4:798-810) for the detection of the positive allosteric modulation (PAM) properties of the compounds of this invention.
CHO-cells were cultured to pre-confluence and stimulated with 5 mM butyrate for 24 hours, prior to washing in PBS, and then collection by scraping in homogenisation buffer (50 mM Tris-HCl buffer, pH 7.4, 4° C.). Cell lysates were homogenized briefly (15 s) using an ultra-turrax homogenizer. The homogenate was centrifuged at 23 500×g for 10 minutes and the supernatant discarded. The pellet was resuspended in 5 mM Tris-HCl, pH 7.4 and centrifuged again (30 000×g, 20 min, 4° C.). The final pellet was resuspended in 50 mM HEPES, pH 7.4 and stored at −80° C. in appropriate aliquots before use. Protein concentration was determined by the Bradford method (Bio-Rad, USA) with bovine serum albumin as standard.
Measurement of mGluR2 positive allosteric modulators in membranes containing human mGluR2 was performed using frozen membranes that were thawed and briefly homogenised prior to pre-incubation in 96-well microplates (15 μg/assay well, 30 minutes, 30° C.) in assay buffer (50 mM HEPES pH 7.4, 100 mM NaCl, 3 mM MgCl2, 50 μM GDP, 10 μg/ml saponin,) with increasing concentrations of positive allosteric modulator (from 0.3 nM to 50 μM) and either a minimal pre-determined concentration of glutamate (PAM assay), or no added glutamate. For the PAM assay, membranes were pre-incubated with glutamate at EC25 concentration, i.e. a concentration that gives 25% of the maximal response glutamate, and is in accordance to published data (Pin et al. (1999) Eur. J. Pharmacol. 375:277-294). After addition of [^35S]GTPγS (0.1 nM, f.c.) to achieve a total reaction volume of 200 μl, microplates were shaken briefly and further incubated to allow [^35S]GTPγS incorporation on activation (30 minutes, 30° C.). The reaction was stopped by rapid vacuum filtration over glass-fibre filter plates (Unifilter 96-well GF/B filter plates, Perkin-Elmer, Downers Grove, USA) microplate using a 96-well plate cell harvester (Filtermate, Perkin-Elmer, USA), and then by washing three times with 300 μl of ice-cold wash buffer (Na2PO4.2H2O 10 mM, NaH2PO4.H2O 10 mM, pH=7.4). Filters were then air-dried, and 40 μl of liquid scintillation cocktail (Microscint-O) was added to each well, and membrane-bound [^35S]GTPγS was measured in a 96-well scintillation plate reader (Top-Count, Perkin-Elmer, USA). […]
A general note: Binding of GTPγS marks nucleotide exchange on a G protein.
Take `CCCCn1ccc(-c2ccc(Oc3ccnc(C)c3)cc2)c(C#N)c1=O` [1-064, 3-cyano-1-butyl-4-[4-(2-methyl-pyridin-4-yloxy)-phenyl]-pyridine-2(1H)-one]: the “GTPgS - hR2 PAM pEC50” value came out at 6.4.

The assay is the same for the next values; noted with them: in presence of mGluR2 agonist glutamate at predetermined EC25 concentration, averages of duplicate values of 11-concentration response curves, read-out: GTPgS - hR2 PAM pEC50 (converted).
Consider `N#Cc1c(N[C@@H]2C[C@H]2c2ccccc2)ccn(CC2CC2)c1=O` (racemic) [1-294], for which the EC50 was 3160 nM.

For `CC(C)CCn1ccc(N[C@@H]2C[C@H]2c2ccccc2)c(C#N)c1=O` (racemic) [1-304], the EC50 is 2000 nM.

As for `N#Cc1c(-c2ccc(OCC3CC3)cc2F)ccn(CC2CC2)c1=O` [1-003], the EC50 was 631 nM.

For `N#Cc1c(-c2ccc(Oc3ccnc(N4CCCC4)c3)cc2)ccn(CC2CC2)c1=O` [1-005], the EC50 is 398 nM.

`N#Cc1c(-c2ccc(Oc3ccnc(N4CCCCC4)c3)cc2)ccn(CC2CC2)c1=O` [1-006]: the EC50 was 316 nM.

Turning to `CN(C)c1ccc(-c2ccn(CC3CCCCC3)c(=O)c2C#N)cc1` [1-010], the EC50 is 100 nM.

As to `COc1ccc(-c2ccn(CC3CCCCC3)c(=O)c2C#N)cc1` [1-012], the EC50 was 398 nM.

In the case of `Cc1ccccc1Cn1ccc(-c2cccs2)c(C#N)c1=O` [1-015], the EC50 is 3980 nM.

For `COc1ccc(-c2ccn(Cc3ccccc3C)c(=O)c2C#N)cc1` [1-016], the EC50 was 2000 nM.

For `COc1ccc(-c2ccn(Cc3cccc(C)c3)c(=O)c2C#N)cc1` [1-017], the EC50 was 1000 nM.

Consider `COc1ccc(-c2ccn(Cc3ccc(C)cc3)c(=O)c2C#N)cc1` [1-021], for which the EC50 is 631 nM.

For `COc1ccc(-c2ccn(Cc3ccc(F)cc3)c(=O)c2C#N)cc1` [1-022], the EC50 is 316 nM.

As for `CC(C)Oc1ccc(-c2ccn(Cc3ccc(F)cc3)c(=O)c2C#N)cc1Cl` [1-025], the EC50 was 100 nM.

On to `COc1ccc(-c2ccn(Cc3cccc(Cl)c3)c(=O)c2C#N)cc1` [1-026], for which the EC50 was 501 nM.

Regarding `COc1ccc(-c2ccn(Cc3ccc(Cl)cc3)c(=O)c2C#N)cc1` [1-027], the EC50 was 501 nM.

`C[C@@H]1COC[C@H](C)N1Cc1ccc(-c2ccn(Cc3ccc(OC(F)(F)F)cc3)c(=O)c2C#N)cc1` [1-034]: the EC50 was 1260 nM.

`CC1COCC(C)N1Cc1ccc(-c2ccn(Cc3ccc(OC(F)(F)F)cc3)c(=O)c2C#N)cc1` (stereo not shown) [1-036]: the EC50 was 631 nM.

Regarding `N#Cc1c(-c2ccccc2)ccn(CCOc2ccccc2)c1=O` [1-047], the EC50 is 2510 nM.

`CC(C)Oc1ccc(-c2ccn(CCOc3ccccc3)c(=O)c2C#N)cc1Cl` [1-049]: the EC50 was 126 nM.

For the compound `N#Cc1c(-c2ccccc2)ccn(CCCc2ccccc2)c1=O` [1-053], the EC50 was 5010 nM.

For the compound `CCCCn1ccc(-c2ccc(Cn3ccnc3C)cc2)c(C#N)c1=O` [1-060], the EC50 was 1000 nM.

Consider `CCCCn1ccc(-c2cccc(Oc3ccccn3)c2)c(C#N)c1=O` [1-061], for which the EC50 is 6310 nM.

In the case of `CCCCn1ccc(-c2cccc(Oc3ccncc3)c2)c(C#N)c1=O` [1-062], the EC50 was 6310 nM.

Consider `CCCCn1ccc(-c2ccc(Oc3ccncc3)cc2F)c(C#N)c1=O` [1-066], for which the EC50 was 501 nM.

In the case of `CCCCn1ccc(-c2ccc(Oc3ncccc3C(F)(F)F)cc2)c(C#N)c1=O` [1-067], the EC50 was 158 nM.

With `CCCCn1ccc(-c2ccc(Oc3cccc(C(F)(F)F)n3)cc2)c(C#N)c1=O` [1-068], the EC50 was 251 nM.

In the case of `CCCCn1ccc(-c2cccc(Oc3ccncc3C(F)(F)F)c2)c(C#N)c1=O` [1-069], the EC50 is 2510 nM.

Take `CCCCn1ccc(-c2ccc(Oc3ncccc3C#N)cc2)c(C#N)c1=O` [1-071]: the EC50 was 631 nM.

Regarding `CCCCn1ccc(-c2ccc(Oc3ccc(C#N)cn3)cc2)c(C#N)c1=O` [1-072], the EC50 is 1580 nM.

Regarding `CCCCn1ccc(-c2ccc(Oc3ccnc(N4CCOCC4)c3)cc2)c(C#N)c1=O` [1-073], the EC50 was 398 nM.

As to `CCCCn1ccc(-c2ccc(Oc3ncccn3)cc2)c(C#N)c1=O` [1-074], the EC50 was 5010 nM.

On to `CCCCn1ccc(-c2ccc(Oc3ccncn3)cc2)c(C#N)c1=O` [1-075], for which the EC50 is 5010 nM.

As to `CCCCn1ccc(-c2ccc(Oc3cnccn3)cc2)c(C#N)c1=O` [1-076], the EC50 is 3980 nM.

As for `CC(C)CCn1ccc(-c2ccco2)c(C#N)c1=O` [1-081], the EC50 was 6310 nM.

For `CC(C)CCn1ccc(-c2ccc(Cl)s2)c(C#N)c1=O` [1-083], the EC50 is 200 nM.

Regarding `CC(C)CCn1ccc(-c2ccc(F)cc2)c(C#N)c1=O` [1-089], the EC50 was 3160 nM.

For `CC(C)CCn1ccc(-c2ccc(Br)c(Br)c2)c(C#N)c1=O` [1-092], the EC50 is 63.1 nM.

For the compound `CC(C)CCn1ccc(-c2ccc(OCCO)cc2)c(C#N)c1=O` [1-099], the EC50 was 1000 nM.

In the case of `CCOc1ccc(-c2ccn(CCC(C)C)c(=O)c2C#N)cc1` [1-104], the EC50 is 2000 nM.

Regarding `COCCCc1ccc(-c2ccn(CCC(C)C)c(=O)c2C#N)cc1` [1-106], the EC50 was 631 nM.

In the case of `COc1cc(-c2ccn(CCC(C)C)c(=O)c2C#N)ccc1O` [1-108], the EC50 was 6310 nM.

On to `COc1cc(-c2ccn(CCC(C)C)c(=O)c2C#N)ccc1OCCO` [1-109], for which the EC50 was 5010 nM.

Take `COc1cc(F)c(-c2ccn(CCC(C)C)c(=O)c2C#N)c(F)c1` [1-116]: the EC50 was 631 nM.

In the case of `CC(=O)COc1ccc(-c2ccn(CCC(C)C)c(=O)c2C#N)cc1` [1-118], the EC50 is 2000 nM.

Turning to `CC(C)CCn1ccc(-c2ccc(OC(F)F)cc2)c(C#N)c1=O` [1-119], the EC50 was 631 nM.

Consider `CC(C)CCn1ccc(-c2ccc(OCCF)c(Cl)c2)c(C#N)c1=O` [1-121], for which the EC50 is 501 nM.

Take `CC(C)CCn1ccc(-c2ccc(OC3CCCC3)c(Cl)c2)c(C#N)c1=O` [1-124]: the EC50 was 50.1 nM.

Take `COc1cc(-c2ccn(CCC(C)C)c(=O)c2C#N)ccc1OC(C)=O` [1-125]: the EC50 is 5010 nM.

Regarding `CC(=O)CCOc1ccc(-c2ccn(CCC(C)C)c(=O)c2C#N)cc1` [1-126], the EC50 was 631 nM.

For the compound `CC(C)CCn1ccc(-c2ccc(COCC#N)cc2)c(C#N)c1=O` [1-132], the EC50 is 2000 nM.

For `CC(C)CCn1ccc(-c2ccc(OCC3CC3)cc2)c(C#N)c1=O` [1-133], the EC50 is 200 nM.

With `CC(C)CCn1ccc(-c2ccc(OC3CCCC3)cc2)c(C#N)c1=O` [1-135], the EC50 is 1000 nM.

Take `CC(C)CCn1ccc(-c2ccc(OCCC3(C)OCCO3)cc2)c(C#N)c1=O` [1-136]: the EC50 was 631 nM.

Regarding `CC(C)CCn1ccc(-c2ccc(OCCOC3CCCCO3)cc2)c(C#N)c1=O` (stereo not shown) [1-137], the EC50 is 1000 nM.

Take `COc1cc(-c2ccn(CCC(C)C)c(=O)c2C#N)ccc1OCCOC1CCCCO1` (stereo not shown) [1-138]: the EC50 was 794 nM.

Regarding `CC(C)CCn1ccc(-c2ccc(OCCN3CCOCC3)cc2)c(C#N)c1=O` [1-139], the EC50 is 3980 nM.

For `CC(C)CCn1ccc(-c2ccc(Oc3ccccc3)cc2)c(C#N)c1=O` [1-140], the EC50 was 39.8 nM.

Consider `CC(C)CCn1ccc(-c2ccc(OCc3ccccc3)cc2)c(C#N)c1=O` [1-141], for which the EC50 was 63.1 nM.

Regarding `COc1cc(-c2ccn(CCC(C)C)c(=O)c2C#N)ccc1OCc1ccccc1` [1-142], the EC50 is 316 nM.

On to `CC(C)CCn1ccc(-c2ccc(Oc3ccccn3)cc2)c(C#N)c1=O` [1-154], for which the EC50 was 501 nM.
